Results reported in patent publication US20260226076A1, “FUSED MULTICYCLIC COMPOUNDS AND THEIR USE AS PARP1 INHIBITORS” (LAEKNA THERAPEUTICS SHANGHAI CO., LTD., priority 2022, published 2026).
pIC50: −log10 of the molar value. Where two headings read alike, the source gives them in different places.

Legend:
DLD1 BRCA2−/− cells = assay: Cell proliferation assay (DLD1 BRCA2−/−); type: cell-based; conditions: at least 7 days, Cell-Titer Glo, read-out: DLD1 BRCA2−/− anti-proliferation assay
Description: (§1) For PARPi sensitivity, exponentially growing MDA-MB-436 and DLD1 BRCA2^−/− cells were seed in 96 or 384-well plates at very low density with the goal of not splitting for at least 7 days (typically 0.3k-1.2k cells/well). Cells were plated on […] and treated with DMSO or increasing concentrations of PARP1 inhibitors on Day 0. At the end of the experiment, cell viability was estimated using Cell-Titer Glo (Promega).

PARP2 = PARP2 (Homo sapiens, UniProt Q9UGN5); assay: PARP2-FL displacement assay; type: binding; conditions: 20 nM PARP2, 3 nM PARPi-FL, 4 hours incubation, fluorescence polarization
Description: A potent PARP inhibitor (PARPi-FL, Cat No. 6461, Tocris Bioscience) conjugated to BDY FL fluorophore was adopted to characterize the activity of PARP2 by measuring the displacement of binding of PARPi-FL to PARP2. Compounds to be tested were prepared at a concentration of 1-10 mM, and made a 3-fold serial dilution by 100% DMSO in a polypropylene plate (Bio-One small volume microplate, black, Cat No. 784076, Greiner). 100 nL of test compounds were dispensed into a 384-well polypropylene microplate and added 10 μL of reaction solution including premixed 20 nM PARP2 and 3 nM PARPi-FL. After 4 hours of incubation at room temperature, the fluorescence polarization signal at 480/30 nm excitation and 530/30 nm dual emission was measured by VICTOR Nivo® multimode plate reader (PerkinElmer). All of the measured IC50 values were calculated using four parameters dose-response inhibition model in GraphPad Prism 8.0.2 (La Jolla, California, USA, www.graphpad.com).

MDA-MB-436 cells = assay: Cell proliferation assay (MDA-MB-436); type: cell-based; conditions: at least 7 days, Cell-Titer Glo, read-out: MDA-MB-436 anti-proliferation assay
Description: as §1

PARP1 = PARP1 (Homo sapiens, UniProt P09874); assay: PARP1-DNA enzymatic trapping assay; type: biochemical; conditions: 10 nM PARP1, 5 nM DNA probe, 2 mM NAD+, fluorescence polarization read at 30 minutes
Description: Enzymatic trapping assay is to measure the dissociation process of PARP1 from fluorescein-labeled DNA during the enzymatic activity. Assay was conducted at a total 10 μL of reaction volume, including 10 nM PARP1 and 5 nM DNA probe in the binding buffer (50 mM Tris-HCl pH 8.0, 50 mM NaCl, 1 mM MgCl2, 0.1 mM EDTA, and 0.01% IGEPAL), and was commenced by adding a final concentration of 2 mM NAD+ substrate.
PARP1 Poly-ADP ribosylation (PARylation) inhibitory assay was conducted with compounds dissolved in DMSO at a starting concentration of 5 μM. Dissolved compounds were added to 384-well microplate and premixed with PARPI enzyme and DNA probe for 20 minutes incubation. Enzymatic reactions were started by adding NAD+ to mixture, and each well was read at 30 minutes by microplate reader (VICTOR Nivo®, PerkinElmer) to detect the fluorescence polarization signal at 480 nm excitation/530 nm dual emission.
All measured IC50 values were calculated using four parameters dose-response inhibition model in GraphPad Prism 8.0.2 (La Jolla, California, USA, www.graphpad.com).

[1] = Homo sapiens, MDA-MB-436, 168 h

Chain of PARP1 (P09874 whole entry): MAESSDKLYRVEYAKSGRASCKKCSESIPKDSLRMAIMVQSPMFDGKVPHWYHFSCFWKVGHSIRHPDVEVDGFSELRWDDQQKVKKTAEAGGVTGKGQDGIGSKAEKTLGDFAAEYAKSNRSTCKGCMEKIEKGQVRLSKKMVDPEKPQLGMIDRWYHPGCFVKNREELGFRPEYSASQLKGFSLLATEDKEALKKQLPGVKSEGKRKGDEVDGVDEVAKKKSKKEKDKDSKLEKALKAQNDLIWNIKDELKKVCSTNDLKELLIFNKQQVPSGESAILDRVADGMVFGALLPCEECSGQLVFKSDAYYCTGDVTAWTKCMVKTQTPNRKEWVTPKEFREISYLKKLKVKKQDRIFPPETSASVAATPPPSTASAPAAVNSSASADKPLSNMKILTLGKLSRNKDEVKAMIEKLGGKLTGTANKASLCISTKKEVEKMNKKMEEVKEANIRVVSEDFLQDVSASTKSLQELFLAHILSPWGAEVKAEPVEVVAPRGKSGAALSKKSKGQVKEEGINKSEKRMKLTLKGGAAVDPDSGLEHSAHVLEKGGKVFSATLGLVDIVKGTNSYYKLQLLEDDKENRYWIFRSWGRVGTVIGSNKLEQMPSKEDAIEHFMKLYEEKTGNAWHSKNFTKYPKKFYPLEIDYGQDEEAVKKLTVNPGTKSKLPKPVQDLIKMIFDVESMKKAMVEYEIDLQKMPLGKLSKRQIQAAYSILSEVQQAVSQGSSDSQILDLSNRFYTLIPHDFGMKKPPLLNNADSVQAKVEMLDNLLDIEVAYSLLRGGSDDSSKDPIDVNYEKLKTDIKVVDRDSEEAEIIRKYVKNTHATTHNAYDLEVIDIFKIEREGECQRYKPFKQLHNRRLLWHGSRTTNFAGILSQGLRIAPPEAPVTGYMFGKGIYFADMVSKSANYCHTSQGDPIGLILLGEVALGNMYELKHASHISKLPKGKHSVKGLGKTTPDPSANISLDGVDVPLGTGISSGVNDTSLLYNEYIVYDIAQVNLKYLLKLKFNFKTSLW
Chain of PARP2 (Q9UGN5 whole entry): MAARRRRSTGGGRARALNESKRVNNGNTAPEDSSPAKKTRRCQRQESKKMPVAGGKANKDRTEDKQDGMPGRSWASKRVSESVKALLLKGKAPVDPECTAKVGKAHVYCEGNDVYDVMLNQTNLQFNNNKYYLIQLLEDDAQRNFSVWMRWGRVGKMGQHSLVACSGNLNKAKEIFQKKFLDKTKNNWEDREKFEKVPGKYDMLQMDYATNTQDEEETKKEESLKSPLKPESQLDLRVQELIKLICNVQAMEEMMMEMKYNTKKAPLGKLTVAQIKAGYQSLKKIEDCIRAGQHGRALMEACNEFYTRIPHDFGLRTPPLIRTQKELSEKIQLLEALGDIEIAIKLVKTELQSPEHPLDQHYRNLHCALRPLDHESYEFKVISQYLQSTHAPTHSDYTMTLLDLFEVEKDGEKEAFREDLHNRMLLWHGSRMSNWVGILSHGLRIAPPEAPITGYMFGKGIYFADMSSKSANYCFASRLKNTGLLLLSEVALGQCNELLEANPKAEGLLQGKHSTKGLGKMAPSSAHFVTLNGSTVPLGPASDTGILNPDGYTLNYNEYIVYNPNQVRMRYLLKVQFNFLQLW

pIC50 (DLD1 BRCA2−/− cells; Homo sapiens, DLD-1, 168 h) | pIC50 (PARP2) | pIC50 (MDA-MB-436 cells; [1]) | pIC50 (PARP1) | pIC50 (DLD1 BRCA2−/− cells) | pIC50 (MDA-MB-436 cells) | SMILES
9.26 | 6.73 | 8.86 | 7.88 | – | – | CNC(=O)c1ccc(N2C[C@H]3CN(Cc4cnc5c6c(c(=O)[nH]c5c4)CCCC6)C[C@@H]3C2)c(F)n1 [Compound 82]
8.32 | 5.41 | 9.08 | 8.30 | – | – | CNC(=O)c1ccc(N2C[C@H]3CN(Cc4cc5[nH]c(=O)c6c(c5cn4)COCC6)C[C@@H]3C2)c(F)n1 [Compound 80]
9.48 | 5.90 | 9.43 | 8.20 | – | – | CCc1cc2ncc(CN3C[C@@H]4CN(c5ccc(C(=O)NC)nc5)C[C@H]4C3)cc2[nH]c1=O [Compound 15]
9.28 | 6.66 | 9.92 | 8.31 | – | – | CNC(=O)c1ccc(N2C[C@H]3CN(Cc4ccc5c6c(c(=O)[nH]c5c4)COCC6)C[C@@H]3C2)c(F)n1 [Compound 66]
8.86 | 5.63 | 8.65 | 7.93 | – | – | O=C(N[C@@H]1CCOC1)c1ccc(N2C[C@H]3CN(Cc4ccc5c6c(c(=O)[nH]c5c4)COCC6)C[C@@H]3C2)c(F)n1 [Compound 86]
9.09 | 6.17 | 9.62 | 8.53 | – | – | O=C(NC1COC1)c1ccc(N2C[C@H]3CN(Cc4ccc5c6c(c(=O)[nH]c5c4)COCC6)C[C@@H]3C2)c(F)n1 [Compound 69]
8.57 | 5.79 | 9.39 | 8.11 | – | – | CNC(=O)c1ccc(N2C[C@H]3CN(Cc4cc5[nH]c(=O)c6c(c5cn4)CCOC6)C[C@@H]3C2)c(F)n1 [Compound 77]
9.27 | 6.83 | 9.27 | 8.12 | – | – | O=C(NC1COC1)c1ccc(N2C[C@H]3CN(Cc4cnc5c6c(c(=O)[nH]c5c4)CCCC6)C[C@@H]3C2)c(F)n1 [Compound 83]
8.67 | 5.68 | 8.99 | 8.02 | – | – | COCCNC(=O)c1ccc(N2C[C@H]3CN(Cc4cnc5c6c(c(=O)[nH]c5c4)CCC6)C[C@@H]3C2)c(F)n1 [Compound 49]
8.99 | 5.69 | 9.13 | 7.92 | – | – | CNC(=O)c1ccc(N2C[C@H]3CN(Cc4cnc5c6c(c(=O)[nH]c5c4)CCC6)C[C@@H]3C2)c(F)n1 [Compound 48]
9.27 | 5.15 | 9.35 | 8.19 | – | – | CNC(=O)c1ccc(N2C[C@H]3CN(Cc4cc5[nH]c(=O)c6c(c5cn4)CCC6)C[C@@H]3C2)c(F)n1 [Compound 54]
8.52 | 5.61 | 8.78 | 8.09 | – | – | COCCNC(=O)c1ccc(N2C[C@H]3CN(Cc4cnc5c(c4)[nH]c(=O)c4cccn45)C[C@@H]3C2)cn1 [Compound 46]
9.36 | 6.30 | 9.74 | 8.30 | – | – | CNC(=O)c1ccc(N2C[C@H]3CN(Cc4cnc5c6c(c(=O)[nH]c5c4)COCC6)C[C@@H]3C2)c(F)n1 [Compound 71]
7.97 | – | 7.50 | 7.33 | – | – | CNC(=O)c1ccc(N2C[C@@H]3CN(Cc4ccc5c(c4)[nH]c(=O)n4ccnc54)C[C@H]3C2)cn1 (racemic) [Compound 13]
7.90 | – | 7.94 | 7.56 | – | – | CCC1Oc2ncc(CN3C[C@H]4CN(c5ccc(C(=O)NC6CC6)nc5F)C[C@@H]4C3)cc2NC1=O (mixture of isomers) [Compound 18]
6.33 | – | < 6.30 | < 6.30 | – | – | CNC(=O)c1ccc(N2C[C@@H]3CN(Cc4ccc5c(c4F)NC(=O)C(C)O5)C[C@H]3C2)cn1 (mixture of isomers) [Compound 17]
8.43 | – | 8.30 | 7.76 | – | – | CNC(=O)c1ccc(N2C[C@@H]3CN(Cc4cnc5c(c4)[nH]c(=O)n4cccc54)C[C@H]3C2)cn1 (racemic) [Compound 12]

pIC50 (DLD1 BRCA2−/− cells; Homo sapiens, DLD-1, 168 h) | pIC50 (PARP2) | pIC50 (MDA-MB-436 cells; [1]) | pIC50 (PARP1) | pIC50 (DLD1 BRCA2−/− cells) | pIC50 (MDA-MB-436 cells) | SMILES
8.67 | – | 9.19 | 7.98 | – | – | COCCNC(=O)c1ccc(N2C[C@H]3CN(Cc4ccc5c6c(c(=O)[nH]c5c4)COCC6)C[C@@H]3C2)c(F)n1 [Compound 67]
9.11 | – | 8.96 | 8.03 | – | – | CNC(=O)c1ccc(N2C[C@H]3CN(Cc4cnc5c6c(c(=O)[nH]c5c4)CCC6)C[C@@H]3C2)cn1 [Compound 47]
6.43 | – | 6.39 | < 6.30 | – | – | CNC(=O)c1ccc(N2C[C@@H]3CN(Cc4cnc5cc(C)c(=O)[nH]c5c4)C[C@H]3C2)c(C)n1 [Compound 24]
8.82 | – | 8.68 | 8.07 | – | – | CNC(=O)c1ccc(N2C[C@H]3CN(Cc4cc5[nH]c(=O)c(C)cc5cn4)C[C@@H]3C2)c(F)n1 [Compound 36]
8.39 | – | 8.98 | 8.10 | – | – | O=C(N[C@@H]1CCOC1)c1ccc(N2C[C@H]3CN(Cc4cnc5c6c(c(=O)[nH]c5c4)CCC6)C[C@@H]3C2)c(F)n1 [Compound 50]
8.96 | – | 9.16 | 7.96 | – | – | CNC(=O)c1ccc(N2C[C@H]3CN(Cc4cnc5c(c4)NC(=O)[C@@H]4CCCN54)C[C@@H]3C2)c(F)n1 [Compound 22]
8.53 | – | 9.15 | 8.13 | – | – | O=C(N[C@H]1CCOC1)c1ccc(N2C[C@H]3CN(Cc4cnc5c6c(c(=O)[nH]c5c4)CCC6)C[C@@H]3C2)c(F)n1 [Compound 51]
8.31 | – | 8.11 | 7.69 | – | – | CNC(=O)c1ccc(N2C[C@H]3CN(Cc4ccc5nc(C)c(=O)[nH]c5c4F)C[C@@H]3C2)c(F)n1 [Compound 10]
8.38 | – | 8.52 | 7.63 | – | – | COCCNC(=O)c1ccc(N2C[C@H]3CN(Cc4cnc5cc(C)c(=O)[nH]c5c4)C[C@@H]3C2)c(F)n1 [Compound 35]
9.35 | – | 9.43 | 8.09 | – | – | Cc1cc2ncc(CN3C[C@@H]4CN(c5ccc(C(=O)NC6CC6)nc5F)C[C@H]4C3)cc2[nH]c1=O [Compound 30]
8.13 | – | 8.30 | 7.69 | – | – | CNC(=O)c1ccc(N2C[C@H]3CN(Cc4cnc5cc(C)c(=O)[nH]c5c4)C[C@@H]3C2)c(C)n1 [Compound 25]
8.08 | – | 8.91 | 7.72 | – | – | O=C(N[C@H]1CCOC1)c1ccc(N2C[C@H]3CN(Cc4cc5[nH]c(=O)c6c(c5cn4)CCC6)C[C@@H]3C2)c(F)n1 [Compound 57]
– | – | – | 6.95 | 7.73 | 7.40 | CCC1Oc2ncc(CN3C[C@H]4CN(c5ccc(C(=O)NC)nc5)C[C@@H]4C3)cc2NC1=O (mixture of isomers) [Compound 5]
– | – | – | 7.97 | 8.70 | 9.40 | CCc1cc2ncc(CN3C[C@H]4CN(c5ccc(C(=O)NC)nc5)C[C@@H]4C3)cc2[nH]c1=O (racemic) [Compound 2]
7.99 | – | 9.03 | 8.07 | – | – | CO[C@H]1C[C@@H](NC(=O)c2ccc(N3C[C@H]4CN(Cc5cnc6c7c(c(=O)[nH]c6c5)COCC7)C[C@@H]4C3)cn2)C1 [Compound 75]
8.91 | – | 8.86 | 8.01 | – | – | CCc1cc2cnc(CN3C[C@@H]4CN(c5ccc(C(=O)NC)nc5)C[C@@H]4C3)cc2[nH]c1=O [Compound 39]
7.46 | – | 7.69 | 7.51 | – | – | CNC(=O)c1ccc(N2C[C@@H]3CN(Cc4cnc5c(c4)NC(=O)[C@@H]4CCCN54)C[C@H]3C2)c(F)n1 [Compound 23]
